Measured values taken from the NIST ThermoML archive (doi:10.1016/j.jct.2012.11.010).

Settings: Liquid; for viscosity: 101.33 kPa, Falling or rolling sphere viscometry; for mass density: Vibrating tube method

CCCC[N+]1(C)CCCC1.FC(F)(F)C(F)(F)[P-](F)(F)(F)(C(F)(F)C(F)(F)F)C(F)(F)C(F)(F)F
Settings	viscosity [mPa·s]
293.15 K	333.79
303.15 K	179.86
313.15 K	106
323.15 K	68.08
333.15 K	45.37
343.15 K	31.9
353.15 K	23.42
363.15 K	17.58
373.15 K	13.71

Settings	mass density [kg/m3]
293.17 K, 5000 kPa	1606.7
293.17 K, 10000 kPa	1610.2
293.17 K, 15000 kPa	1614.1
293.17 K, 20000 kPa	1618
293.17 K, 25000 kPa	1621.7
293.18 K, 2500 kPa	1604.9
293.19 K, 100 kPa	1603.7
293.19 K, 500 kPa	1604
293.19 K, 1000 kPa	1603.9
303.18 K, 100 kPa	1592.8
303.19 K, 1000 kPa	1593.1
303.2 K, 500 kPa	1593.1
303.25 K, 10000 kPa	1599.5
303.25 K, 20000 kPa	1607.6
303.25 K, 25000 kPa	1611.4
303.26 K, 2500 kPa	1593.9
303.26 K, 5000 kPa	1595.8
303.26 K, 15000 kPa	1603.6
313.19 K, 10000 kPa	1589.1
313.2 K, 100 kPa	1581.9
313.2 K, 500 kPa	1582.3
313.2 K, 1000 kPa	1582.3
313.2 K, 5000 kPa	1585.3
313.2 K, 20000 kPa	1597.4
313.21 K, 2500 kPa	1583.3
313.21 K, 15000 kPa	1593.3
313.21 K, 25000 kPa	1601.4
323.14 K, 100 kPa	1571
323.14 K, 500 kPa	1571.4
323.14 K, 2500 kPa	1572.5
323.14 K, 10000 kPa	1578.5
323.14 K, 15000 kPa	1582.9
323.14 K, 20000 kPa	1587.2
323.14 K, 25000 kPa	1591.3
323.15 K, 1000 kPa	1571.5
323.15 K, 5000 kPa	1574.6
333.17 K, 100 kPa	1560.4
333.17 K, 500 kPa	1560.8
333.17 K, 1000 kPa	1560.9
333.17 K, 5000 kPa	1564.2
333.18 K, 2500 kPa	1562
333.18 K, 10000 kPa	1568.2
333.18 K, 15000 kPa	1572.7
333.18 K, 20000 kPa	1577.2
333.18 K, 25000 kPa	1581.4
343.16 K, 100 kPa	1549.9
343.17 K, 500 kPa	1550.4
343.18 K, 1000 kPa	1550.5
343.19 K, 2500 kPa	1551.6
343.2 K, 5000 kPa	1553.9
343.2 K, 10000 kPa	1558.1
343.2 K, 15000 kPa	1562.8
343.2 K, 20000 kPa	1567.4
343.21 K, 25000 kPa	1571.7
353.17 K, 100 kPa	1539.5
353.17 K, 500 kPa	1540.1
353.17 K, 5000 kPa	1543.8
353.18 K, 1000 kPa	1540.3
353.18 K, 2500 kPa	1541.4
353.18 K, 15000 kPa	1553
353.19 K, 10000 kPa	1548.2
353.19 K, 20000 kPa	1557.7
353.19 K, 25000 kPa	1562.2

CCCCCCCCCCCCCC[P+](CCCCCC)(CCCCCC)CCCCCC.FC(F)(F)C(F)(F)[P-](F)(F)(F)(C(F)(F)C(F)(F)F)C(F)(F)C(F)(F)F
Settings	viscosity [mPa·s]
293.15 K	470.83
303.15 K	259.01
313.15 K	155.29
323.15 K	94.33
333.15 K	65
343.15 K	42.67
353.15 K	30.35
363.15 K	22.81
373.15 K	17.53

Settings	mass density [kg/m3]
293.2 K, 100 kPa	1185.7
293.21 K, 500 kPa	1185.9
293.22 K, 1000 kPa	1185.9
293.22 K, 2500 kPa	1186.7
293.22 K, 5000 kPa	1188.3
293.22 K, 10000 kPa	1191.3
293.22 K, 25000 kPa	1201.2
293.23 K, 15000 kPa	1194.7
293.23 K, 20000 kPa	1198
303.19 K, 100 kPa	1177.4
303.19 K, 500 kPa	1177.7
303.19 K, 1000 kPa	1177.7
303.21 K, 2500 kPa	1178.5
303.22 K, 5000 kPa	1180.1
303.22 K, 10000 kPa	1183.3
303.23 K, 15000 kPa	1186.8
303.23 K, 20000 kPa	1190.2
303.25 K, 25000 kPa	1193.5
313.15 K, 100 kPa	1169.1
313.17 K, 500 kPa	1169.4
313.17 K, 1000 kPa	1169.4
313.17 K, 2500 kPa	1170.3
313.17 K, 5000 kPa	1172
313.17 K, 10000 kPa	1175.4
313.17 K, 15000 kPa	1179.1
313.17 K, 20000 kPa	1182.6
313.17 K, 25000 kPa	1186
323.14 K, 15000 kPa	1171.1
323.15 K, 500 kPa	1161
323.15 K, 1000 kPa	1161.1
323.15 K, 5000 kPa	1163.8
323.15 K, 10000 kPa	1167.3
323.15 K, 20000 kPa	1174.7
323.16 K, 100 kPa	1160.6
323.16 K, 2500 kPa	1162
323.16 K, 25000 kPa	1178.3
333.11 K, 100 kPa	1152.6
333.12 K, 500 kPa	1152.9
333.12 K, 1000 kPa	1153
333.12 K, 2500 kPa	1154
333.12 K, 10000 kPa	1159.5
333.13 K, 5000 kPa	1156.8
333.13 K, 15000 kPa	1163.4
333.13 K, 25000 kPa	1171
333.14 K, 20000 kPa	1167.2
343.07 K, 500 kPa	1145
343.07 K, 1000 kPa	1145.1
343.08 K, 2500 kPa	1146.1
343.08 K, 10000 kPa	1151.9
343.08 K, 15000 kPa	1156
343.09 K, 5000 kPa	1148.1
343.09 K, 25000 kPa	1163.7
343.1 K, 20000 kPa	1159.9
343.13 K, 100 kPa	1144.5
353.2 K, 100 kPa	1136.5
353.22 K, 500 kPa	1137
353.22 K, 2500 kPa	1138.2
353.22 K, 5000 kPa	1140.2
353.23 K, 1000 kPa	1137.1
353.23 K, 10000 kPa	1144.2
353.23 K, 15000 kPa	1148.4
353.25 K, 20000 kPa	1152.5
353.25 K, 25000 kPa	1156.4
